Patent US5873359A, “Methods and devices for treating pulmonary vasoconstriction and asthma” (The General Hospital Corporation, priority 1994, dated 1999)

What was measured:
lungs = assay: Light microscopy of lungs for morphological changes caused by breathing NO; assay type: in vivo; details: 80 ppm NO for 180 min, three lambs vs control lungs
Procedure: Lungs from three lambs which had breathed 80 ppm NO for 180 min were studied by light microscopy for evidence of morphological changes caused by breathing NO.

[1] = tested on: heparin-protamine-induced elevated PAP and PVR; assay type: in vivo, sheep
Procedure: The heparin-protamine reaction was induced in these nine sheep by first administering heparin (200 U/kg; Elkins-Sinn, Cherry Hill, N.J.) followed five minutes later (at time zero) by protamine (2 mg/kg; Elkins-Sinn). Each of these sheep also served as a control. Six additional sheep were given an intravenous infusion of sodium nitroprusside (40 μg/kg/min body weight; Elkins-Sinn) while breathing air (data not shown).

[2] = tested on: methacholine bronchoconstriction; assay: Tolerance to 1 hour of NO inhalation during methacholine infusion; assay type: in vivo, Hartley strain guinea pigs
Procedure: Male Hartley strain guinea pigs (300-440g body wt) were anesthetized with α-chloralose (50 mg/kg) and urethane (500 mg/kg) (Drazen et al., J. Appl. Physiol. 48:613-618, 1980). A tracheostomy was performed, and the animals were intubated with a tubing adaptor (ID 1.65 mm) and ventilated with a small animal ventilator (Harvard Apparatus, a division of Ealing Scientific, Natick, Mass.) at 8 ml/kg and 60 breaths/min. A jugular vein was cannulated for intravenous administration of drugs. The chest was opened by bilateral excision of a portion of the ribs anteriorly so that the lungs were exposed to atmospheric pressure (Shore and Drazen, J. Appl. Physiol. 67:2504-2511, 1989). A positive end expiratory pressure of 3-4 cmH2 O was provided.
Guinea pigs were then placed inside a plethysmograph (Amdur and Mead, Am. J. Physiol. 192:363-368, 1958), that was connected to a large reservoir containing copper mesh to maintain the plethysmograph isothermal. Plethysmograph pressure was measured with a differential pressure transducer (Celesco, Canoga Park, Calif.); the opposite side of this transducer was connected to a similar reservoir. Pressure at the airway opening was measured from a side tap in the tracheal canula. Transpulmonary pressure was measured with a differential pressure transducer (Celesco) as the difference between airway opening pressure and the pressure inside the plethysmograph. […] Tidal volume was measured by recording the pressure changes in the body plethysmograph. Volume, flow, and transpulmonary pressure signals were recorded on a strip chart (General Scanning, Watertown, Mass.). Pulmonary resistance and dynamic compliance were calculated by a computer program according to the method of von Neergard and Wirz (Z. Klin. Med. 105:35-50, 1927; Z. Klin. Med. 105:52-82, 1927).
The apparatus and conditions used are diagrammed in FIG. 7. […] With volumetrically calibrated flowmeters, varying quantities of NO mixed with N2 were substituted for pure N2 to obtain the desired No concentration at an inspired oxygen concentration (FIO2) of 0.30-0.32. […]

## [N]=O [NO, nitric oxide]
lungs
  morphological changes of lungs: No significant differences
[1]; 180 ppm inhaled NO vs SNP
  systemic hypotension: without the latter drug's propensity to cause marked systemic hypotension
[1]; 180 ppm inhaled NO vs SNP 40 μg/kg/min
  lowering of heparin-protamine-induced PAP: comparable to 40 μg/kg/min SNP infusion
[1]; 180 ppm inhaled NO, nine awake sheep
  prevention of elevated PAP and PVR: prevent the elevated PAP and PVR
[2]; 100 ppm NO, one hour
  tolerance: no tolerance
[2]; 100 ppm NO, one hour (FIG. 13)
  airway resistance: effectively and stably reduced the airway resistance for one hour
[2]; after one hour of breathing 100 ppm NO
  methemoglobin levels: below 5%
